In ChEMBL document CHEMBL1201862, “PubChem BioAssay data set” (2004):
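Growth conditions: 96-well plates. Treatment: test compound, 48 hours, 5 concentrations. Analysis: linear interpolation between bracketing concentrations; unreached endpoints set to highest concentration. GI50 is the concentration that inhibits growth by half.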 The source made the active and inactive calls. Cut-off read from the data, not from the text of the source: active = GI50 up to about 1.1 µM and inactive = higher.

Experiments:
Experiment in all cases: NCI-60 cell line screen, 48 h
XF498 = system: XF498
HCC 2998 = system: HCC 2998
HOP-62 = system: HOP-62
SF-268 = system: SF-268
OVCAR-5 = system: OVCAR-5
MOLT-4 = system: MOLT-4
HL-60 = system: HL-60
UO-31 = system: UO-31
Malme-3M = system: Malme-3M
HCT-15 = system: HCT-15
LXFL 529 = system: LXFL 529
OVCAR-8 = system: OVCAR-8
RPMI-8226 = system: RPMI-8226
IGROV-1 = system: IGROV-1
CCRF-CEM = system: CCRF-CEM
ACHN = system: ACHN
SK-MEL-5 = system: SK-MEL-5
SK-OV-3 = system: SK-OV-3
COLO 205 = system: COLO 205
SR = system: SR
NCI-H23 = system: NCI-H23
A549 = system: A549
SK-MEL-28 = system: SK-MEL-28
SNB-19 = system: SNB-19
OVCAR-4 = system: OVCAR-4
HCT-116 = system: HCT-116
M14 = system: M14
786-0 = system: 786-0
RXF 393 = system: RXF 393
SF-295 = system: SF-295
SN12C = system: SN12C
RXF 631 = system: RXF 631
DMS-114 = system: DMS-114
HOP-92 = system: HOP-92
OVCAR-3 = system: OVCAR-3
HT-29 = system: HT-29
DLD-1 = system: DLD-1
UACC-62 = system: UACC-62
U-251 = system: U-251
SF-539 = system: SF-539
M19-MEL = system: M19-MEL
SNB-75 = system: SNB-75
NCI-H522 = system: NCI-H522
SW-620 = system: SW-620
KM-20L2 = system: KM-20L2
NCI-H460 = system: NCI-H460
KM12 = system: KM12
LOX IMVI = system: LOX IMVI
SNB-78 = system: SNB-78
DMS-273 = system: DMS-273
CAKI-1 = system: CAKI-1
UACC-257 = system: UACC-257
NCI-H226 = system: NCI-H226
K562 = system: K562

## COc1ccc(/C(=N\NC(=N)N)C(c2ccc(OC)cc2)C2OC(=O)c3ccccc32)cc1 (centres undefined)
XF498
  GI50: > 100 µM (inactive)
HCC 2998
  GI50: > 100 µM (inactive)
HOP-62
  GI50: > 100 µM (inactive)
SF-268
  GI50: > 100 µM (inactive)
OVCAR-5
  GI50: > 100 µM (inactive)
MOLT-4
  GI50: > 100 µM (inactive)
HL-60
  GI50: > 100 µM (inactive)
UO-31
  GI50: > 100 µM (inactive)
Malme-3M
  GI50: > 100 µM (inactive)
HCT-15
  GI50: > 100 µM
LXFL 529
  GI50: > 100 µM (inactive)
OVCAR-8
  GI50: > 100 µM (inactive)
RPMI-8226
  GI50: > 100 µM (inactive)
IGROV-1
  GI50: > 100 µM (inactive)
CCRF-CEM
  GI50: > 100 µM (inactive)
ACHN
  GI50: > 100 µM (inactive)
SK-MEL-5
  GI50: > 100 µM (inactive)
SK-OV-3
  GI50: > 100 µM (inactive)
COLO 205
  GI50: > 100 µM (inactive)
SR
  GI50: > 100 µM (inactive)
NCI-H23
  GI50: > 100 µM (inactive)
A549
  GI50: > 100 µM (inactive)
SK-MEL-28
  GI50: > 100 µM (inactive)
SNB-19
  GI50: > 100 µM (inactive)
OVCAR-4
  GI50: > 100 µM (inactive)
HCT-116
  GI50: > 100 µM (inactive)
M14
  GI50: > 100 µM (inactive)
786-0
  GI50: > 100 µM (inactive)
RXF 393
  GI50: > 100 µM (inactive)
SF-295
  GI50: > 100 µM (inactive)
SN12C
  GI50: > 100 µM (inactive)
RXF 631
  GI50: > 100 µM (inactive)
DMS-114
  GI50: > 100 µM (inactive)
HOP-92
  GI50: > 100 µM (inactive)
OVCAR-3
  GI50: > 100 µM (inactive)
HT-29
  GI50: > 100 µM (inactive)
DLD-1
  GI50: > 100 µM (inactive)
UACC-62
  GI50: > 100 µM (inactive)
U-251
  GI50: > 100 µM (inactive)
SF-539
  GI50: > 100 µM (inactive)
M19-MEL
  GI50: > 100 µM (inactive)
SNB-75
  GI50: 67.5 µM (inactive)
NCI-H522
  GI50: > 100 µM (inactive)
SW-620
  GI50: > 100 µM (inactive)
KM-20L2
  GI50: > 100 µM (inactive)
NCI-H460
  GI50: > 100 µM (inactive)
KM12
  GI50: > 100 µM (inactive)
LOX IMVI
  GI50: > 100 µM (inactive)
SNB-78
  GI50: > 100 µM (inactive)
DMS-273
  GI50: > 100 µM (inactive)
CAKI-1
  GI50: > 100 µM (inactive)
UACC-257
  GI50: > 100 µM (inactive)
NCI-H226
  GI50: > 100 µM (inactive)
K562
  GI50: > 100 µM (inactive)
